Measurements as given in patent US20250059175A1, “Mutant Pi3k-Alpha Inhibitors And Their Use As Pharmaceuticals” (Prelude Therapeutics Incorporated, priority 2023, published 2025).

Columns and labels:
[1] = test system: phosphorylation of AKT on Ser473 (PI3K pathway) in SKBR3 (PIK3CA WT) cell line; experiment: PI3K pathway activation assay (pAKT Ser473 HTRF), SKBR3 cells; format: cell-based; conditions: Homo sapiens, SK-BR-3, 2 h, two hours of treatment
Protocol: (§1) The inhibitory activity of the compounds of the disclosure was evaluated by measuring phosphorylation of AKT on Ser473 as a readout of the PI3K pathway using HTRF (CisBio catalog number: 64AKSPE). These studies were conducted in the T-47D (heterozygous PIK3CA H1047R) and SKBR3 (PIK3CA WT) cell lines. Cells were maintained in a 37° C. incubator at 5% CO2 in the following media: T-47D: RPMI 1640, ATCC© Modification (Gibco, A10491-01) supplemented with 10% v/v FBS (Gibco, 26140-079), 1% penicillin streptomycin (Gibco, 15140-122), and 7.4 ug/mL insulin (MilliporeSigma, I9278); SKBR3: McCoy's 5a (Modified) Medium (Gibco, 16600-082) supplemented with 10% v/v FBS (Gibco, 26140-079). Cells were seeded in 384-well plates at a density of 4,000 cells/well. Compounds dissolved in DMSO were added using a digital dispense (D300E, Tecan) 10-point serial dilution. After two hours of treatment, cells were lysed for thirty minutes and then incubated with detection reagents per HTRF kit material and manufacturer's instructions. Fluorescence signal was measured with a multimode plate reader (Envision 2105, Perkin Elmer). Fluorescent signal was normalized to background and DMSO controls to obtain percent inhibition/activity for each compound.

[2] = test system: phosphorylation of AKT on Ser473 (PI3K pathway) in T-47D (heterozygous PIK3CA H1047R) cell line; experiment: PI3K pathway activation assay (pAKT Ser473 HTRF), T-47D cells; format: cell-based; conditions: Homo sapiens, T47D, 2 h; T-47D (heterozygous PIK3CA H1047R) cells, two hours of treatment, pAKT Ser473 HTRF; read-out: T47D pAKT IC50
Protocol: as §1

IC50 [1] [nM] | IC50 [2] [nM] | SMILES
> 10000 | < 100 | Cc1cc([C@@H](C)Nc2ccc(Cl)nc2C(=O)O)nc(N2C(=O)OC[C@@H]2Cc2ccc(F)cc2)c1 [Example 24, 6-Chloro-3-(((R)-1-(6-((S)-4-(4-fluorobenzyl)-2-oxooxazolidin-3-yl)-4-methylpyridin-2-yl)ethyl)amino)picolinic acid]
– | 100 to 1000 | Cc1cc([C@@H](C)Nc2ccc(Cl)nc2C(=O)O)nc(N2C(=O)OC[C@@H]2CCc2ccccc2)c1 [Example 53, 6-Chloro-3-(((R)-1-(4-methyl-6-((S)-2-oxo-4-phenethyloxazolidin-3-yl)pyridin-2-yl)ethyl)amino)picolinic acid]
– | 100 to 1000 | Cc1cc(C(C)Nc2cccnc2C(=O)O)nc(N2C(=O)OC[C@@H]2Cc2ccccc2)c1 (single isomer, unassigned) [Example 13]
– | 100 to 1000 | Cc1cc(C(C)Nc2ccc(Cl)nc2C(=O)O)cc(N2C(=O)OC[C@@H]2Cc2ccccc2)c1 (stereo partly drawn) [Example 1, 3-((1-(3-((S)-4-Benzyl-2-oxooxazolidin-3-yl)-5-methylphenyl)ethyl)amino)-6-chloropicolinic acid]
– | 1000 to 10000 | Cc1cc([C@@H](C)Nc2ccc(Cl)nc2C(=O)O)nc(N2C(=O)CCC2Cc2ccccc2)c1 (stereo partly drawn) [Example 55, 3-(((1R)-1-(6-(2-benzyl-5-oxopyrrolidin-1-yl)-4-methylpyridin-2-yl)ethyl)amino)-6-chloropicolinic acid]
– | 1000 to 10000 | Cc1cc(C(C)Nc2ccccc2C(=O)O)nc(N2C(=O)OC[C@@H]2Cc2ccccc2)c1 (stereo partly drawn) [Example 17, 2-((1-(6-((S)-4-Benzyl-2-oxooxazolidin-3-yl)-4-methylpyridin-2-yl)ethyl)amino)benzoic acid]
– | 100 to 1000 | Cc1cc(C(C)Nc2ccc(F)nc2C(=O)O)cc(N2C(=O)OC[C@@H]2Cc2ccccc2)c1 (stereo partly drawn) [Example 3, 3-((1-(3-((S)-4-Benzyl-2-oxooxazolidin-3-yl)-5-methylphenyl)ethyl)amino)-6-fluoropicolinic acid]
– | 1000 to 10000 | Cc1cc(C(C)Nc2ccc(C#N)nc2C(=O)O)nc(N2C(=O)OC[C@@H]2Cc2ccccc2)c1 (stereo partly drawn) [Example 19, 3-((1-(6-((S)-4-Benzyl-2-oxooxazolidin-3-yl)-4-methylpyridin-2-yl)ethyl)amino)-6-cyanopicolinic acid]
– | 100 to 1000 | Cc1cc([C@@H](C)Nc2ccc(Cl)nc2C(=O)O)nc(N2C(=O)OC[C@@H]2Cc2c[nH]c3ccccc23)c1 [Example 50, 3-(((R)-1-(6-((S)-4-((1H-Indol-3-yl)methyl)-2-oxooxazolidin-3-yl)-4-methylpyridin-2-yl)ethyl)amino)-6-chloropicolinic acid]
– | 100 to 1000 | COc1ccc(NC(C)c2cc(C)cc(N3C(=O)OC[C@@H]3Cc3ccccc3)n2)c(C(=O)O)n1 (single isomer, unassigned) [Example 16]
– | 100 to 1000 | Cc1cc([C@@H](C)Nc2ccc(Cl)nc2C(=O)O)nc(N2C(=O)OC[C@@H]2Cc2ccncc2)c1 [Example 28, 6-Chloro-3-(((R)-1-(4-methyl-6-((S)-2-oxo-4-(pyridin-4-ylmethyl)oxazolidin-3-yl)pyridin-2-yl)ethyl)amino)picolinic acid]

The next lines start with the molecule.

SMILES | IC50 [1] [nM] | IC50 [2] [nM]
Cc1cc([C@@H](C)Nc2ccc(Cl)nc2C(=O)O)nc(N2C(=O)N(C)C[C@@H]2Cc2ccc(F)cc2F)c1 [Example 59, 6-Chloro-3-(((R)-1-(6-((S)-5-(2,4-difluorobenzyl)-3-methyl-2-oxoimidazolidin-1-yl)-4-methylpyridin-2-yl)ethyl)amino)picolinic acid] | > 10000 | 100 to 1000
Cc1cc([C@@H](C)Nc2ccc(Cl)nc2C(=O)O)nc(N2C(=O)N(C)C[C@@H]2Cc2ccc(F)cc2)c1 [Example 58, 6-Chloro-3-(((R)-1-(6-((S)-5-(4-fluorobenzyl)-3-methyl-2-oxoimidazolidin-1-yl)-4-methylpyridin-2-yl)ethyl)amino)picolinic acid] | > 10000 | < 100
COc1cc(C[C@H]2COC(=O)N2c2cc(C)cc([C@@H](C)Nc3ccc(Cl)nc3C(=O)O)n2)c(F)cn1 [Example 29, 6-Chloro-3-(((R)-1-(6-((S)-4-((5-fluoro-2-methoxypyridin-4-yl)methyl)-2-oxooxazolidin-3-yl)-4-methylpyridin-2-yl)ethyl)amino)picolinic acid] | > 10000 | < 100
Cc1cc([C@@H](C)Nc2ccc(Cl)nc2C(=O)O)nc(N2C(=O)OC[C@@H]2Cc2ccncc2F)c1 [Example 21, 6-Chloro-3-(((R)-1-(6-((S)-4-((3-fluoropyridin-4-yl)methyl)-2-oxooxazolidin-3-yl)-4-methylpyridin-2-yl)ethyl)amino)picolinic acid] | 1000 to 10000 | < 100
CC(Nc1ccc(Cl)nc1C(=O)O)c1cc(F)cc(N2C(=O)OC[C@@H]2Cc2ccccc2)c1 (stereo partly drawn) [Example 4, 3-((1-(3-((S)-4-Benzyl-2-oxooxazolidin-3-yl)-5-fluorophenyl)ethyl)amino)-6-chloropicolinic acid] | – | 100 to 1000
Cc1cc([C@@H](C)Nc2ccc(Cl)nc2C(=O)O)nc(N2C(=O)OC[C@@H]2Cc2cn(C)c3ncccc23)c1 [Example 39, 6-Chloro-3-(((R)-1-(4-methyl-6-((S)-4-((1-methyl-1H-pyrrolo[2,3-b]pyridin-3-yl)methyl)-2-oxooxazolidin-3-yl)pyridin-2-yl)ethyl)amino)picolinic acid] | – | < 100
Cc1cc([C@@H](C)Nc2ccc(Cl)nc2C(=O)O)nc(N2C(=O)OC[C@@H]2CC2CCC2)c1 [Example 47, 6-Chloro-3-(((R)-1-(6-((S)-4-(cyclobutylmethyl)-2-oxooxazolidin-3-yl)-4-methylpyridin-2-yl)ethyl)amino)picolinic acid] | – | < 100
CC(Nc1ccc(F)nc1C(=O)O)c1cc(F)cc(N2C(=O)OC[C@@H]2Cc2ccccc2)c1 (stereo partly drawn) [Example 5, 3-((1-(3-((S)-4-Benzyl-2-oxooxazolidin-3-yl)-5-fluorophenyl)ethyl)amino)-6-fluoropicolinic acid] | – | 100 to 1000
Cc1cc([C@@H](C)Nc2ccc(Cl)nc2C(=O)O)nc(N2C(=O)OC[C@@H]2Cc2ccc3nn(C)cc3c2)c1 [Example 43, 6-Chloro-3-(((R)-1-(4-methyl-6-((S)-4-((2-methyl-2H-indazol-5-yl)methyl)-2-oxooxazolidin-3-yl)pyridin-2-yl)ethyl)amino)picolinic acid] | – | < 100
Cc1cc([C@@H](C)Nc2ccc(Cl)nc2C(=O)O)nc(N2C(=O)OC[C@@H]2Cc2ccn(C)n2)c1 [Example 33, 6-Chloro-3-(((R)-1-(4-methyl-6-((S)-4-((1-methyl-1H-pyrazol-3-yl)methyl)-2-oxooxazolidin-3-yl)pyridin-2-yl)ethyl)amino)picolinic acid] | – | 100 to 1000
CC(Nc1ccc(F)nc1C(=O)O)c1cc(Cl)cc(N2C(=O)OC[C@@H]2Cc2ccccc2)c1 (stereo partly drawn) [Example 7, 3-((1-(3-((S)-4-Benzyl-2-oxooxazolidin-3-yl)-5-chlorophenyl)ethyl)amino)-6-fluoropicolinic acid] | – | 100 to 1000
Cc1cc([C@@H](C)Nc2ccc(Cl)nc2C(=O)O)nc(N2C(=O)OC[C@@H]2Cc2cnn(C)c2)c1 [Example 32, 6-Chloro-3-(((R)-1-(4-methyl-6-((S)-4-((1-methyl-1H-pyrazol-4-yl)methyl)-2-oxooxazolidin-3-yl)pyridin-2-yl)ethyl)amino)picolinic acid] | – | 100 to 1000
